The assay concerns B6C3F1 mice, B16 melanoma ip, median survival T/C. As to the kind of experiment: NCI In Vivo Anticancer Drug Screen. Data for tumor model B16 Melanoma (intraperitoneal) in B6C3F1 mice. The following applies: endpoint: median survival time, higher = longer survival. Summed up: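 Mice bearing transplanted tumor were dosed with compound or vehicle, and survival was recorded. Activity is expressed as the treated-group measurement (T) divided by the vehicle control measurement (C).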

[1] abbreviates: dose: 100.0 mg/kg/injection, schedule: Q01DX009 (ip), vehicle: saline.
[2] abbreviates: dose: 200.0 mg/kg/injection, schedule: Q01DX009 (ip), vehicle: saline.
Where [3] appears, read: dose: 400.0 mg/kg/injection, schedule: Q01DX009 (ip), vehicle: saline.
Setting [4] is: dose: 25.0 mg/kg/injection, schedule: Q01DX009 (ip), vehicle: saline with Tween-80.
The mark [5] stands for this setting: dose: 25.0 mg/kg/injection, schedule: Q01DX009 (ip), vehicle: suspension in saline.
[6] abbreviates: dose: 50.0 mg/kg/injection, schedule: Q01DX009 (ip), vehicle: saline with Tween-80.
Where [7] appears, read: dose: 50.0 mg/kg/injection, schedule: Q01DX009 (ip), vehicle: suspension in saline.
Where [8] appears, read: dose: 100.0 mg/kg/injection, schedule: Q01DX009 (ip), vehicle: saline with Tween-80.
Where [9] appears, read: dose: 100.0 mg/kg/injection, schedule: Q01DX009 (ip), vehicle: suspension in saline.
Setting [10] is: dose: 200.0 mg/kg/injection, schedule: Q01DX009 (ip), vehicle: suspension in saline.
Where [11] appears, read: dose: 25.0 mg/kg/injection, schedule: Q01DX009 (ip), vehicle: distilled water + Tween-80.
The mark [12] stands for this setting: dose: 50.0 mg/kg/injection, schedule: Q01DX009 (ip), vehicle: distilled water + Tween-80.

Structures are written as SMILES. Where “and” joins values, the source holds several entries; their conditions need not be identical. Equal entries are not always repeated. Toxic doses and inconclusive results are not listed.

Regarding `Nc1ncnc2c1ncn2C1OC(COP(=O)(O)O)C(O)C1O` (stereo not given), the T/C reads like this: (dose: 40.0 mg/kg/injection, schedule: Q01DX009 (ip), vehicle: water) 86 % of control; (dose: 80.0 mg/kg/injection, schedule: Q01DX009 (ip), vehicle: water) 88 % of control; under setting [1], 109 % of control; (dose: 160.0 mg/kg/injection, schedule: Q01DX009 (ip), vehicle: water) 94 % of control; under setting [2], 109 % of control; (dose: 320.0 mg/kg/injection, schedule: Q01DX009 (ip), vehicle: water) 97 % of control. Moreover, the T/C under setting [3] was 115 % of control.

As to `Cc1cc2nc3[nH]c4ccccc4c3nc2cc1C`, the T/C is 91 % of control (dose: 12.5 mg/kg/injection, schedule: Q01DX008 (ip), vehicle: saline); 90 % of control (dose: 25.0 mg/kg/injection, schedule: Q01DX008 (ip), vehicle: saline); 101 % of control (dose: 50.0 mg/kg/injection, schedule: Q01DX008 (ip), vehicle: saline); 91 % of control (dose: 100.0 mg/kg/injection, schedule: Q01DX008 (ip), vehicle: saline); 86 % of control (dose: 200.0 mg/kg/injection, schedule: Q01DX008 (ip), vehicle: saline); 88 % of control (dose: 400.0 mg/kg/injection, schedule: Q01DX008 (ip), vehicle: saline).

In the case of `CS(=O)(=O)CS(=O)(=O)OCCF`, the T/C is 107 % of control (dose: 3.12 mg/kg/injection, schedule: Q01DX009 (ip), vehicle: saline); 100 % of control (dose: 5.4 mg/kg/injection, schedule: Q01DX009 (ip), vehicle: saline); 116 % of control (dose: 6.25 mg/kg/injection, schedule: Q01DX009 (ip), vehicle: saline); 110 % of control and 100 % of control (dose: 9.0 mg/kg/injection, schedule: Q01DX009 (ip), vehicle: saline); 113 % of control and 119 % of control (dose: 15.0 mg/kg/injection, schedule: Q01DX009 (ip), vehicle: saline); 121 % of control and 216 % of control (dose: 41.67 mg/kg/injection, schedule: Q01DX009 (ip), vehicle: saline).

Regarding `N=C(N)c1nn(C2OC(CO)C(O)C2O)c2nc[nH]c(=O)c12` (stereo not given), the T/C is 92 % of control and 102 % of control (dose: 2.25 mg/kg/injection, schedule: Q01DX009 (ip), vehicle: Klucel (hydroxypropylcellulose) (HPC)); 99 % of control (dose: 3.12 mg/kg/injection, schedule: Q01DX009 (ip), vehicle: Klucel + Tween-80); 112 % of control and 101 % of control (dose: 3.75 mg/kg/injection, schedule: Q01DX009 (ip), vehicle: Klucel (hydroxypropylcellulose) (HPC)); 112 % of control and 90 % of control (dose: 6.25 mg/kg/injection, schedule: Q01DX009 (ip), vehicle: Klucel (hydroxypropylcellulose) (HPC)); 92 % of control (dose: 10.42 mg/kg/injection, schedule: Q01DX009 (ip), vehicle: Klucel (hydroxypropylcellulose) (HPC)); 110 % of control and 98 % of control (dose: 17.36 mg/kg/injection, schedule: Q01DX009 (ip), vehicle: Klucel (hydroxypropylcellulose) (HPC)).

Turning to `CC1=CC(=NN=c2cc(C)n([O-])c(C)c2)C=C(C)[N+]1=O`, the T/C is 91 % of control (dose: 12.5 mg/kg/injection, schedule: Q01DX009 (ip), vehicle: suspension in saline); 107 % of control under setting [4]; 99 % of control under setting [5]; 123 % of control under setting [6]; 95 % of control under setting [7]; 121 % of control under setting [8]. For the same molecule, under setting [9], the T/C was 108 % of control.

Turning to `O=C(Nc1nncs1)c1cccs1`, the T/C runs as follows: (dose: 12.5 mg/kg/injection, schedule: Q01DX009 (ip), vehicle: saline with Tween-80) 110 % of control; under setting [4], 105 % of control; under setting [6], 101 % of control; under setting [8], 108 % of control and 106 % of control; (dose: 200.0 mg/kg/injection, schedule: Q01DX009 (ip), vehicle: saline with Tween-80) 121 % of control and 104 % of control.

As to `C1CNCCN1`, the T/C is 103 % of control under setting [5], 111 % of control under setting [7], 109 % of control under setting [9] and 111 % of control under setting [10].

`COc1cc2cc(c1Cl)N(C)C(=O)CC(OC(=O)C(C)NC(=O)C(C)C)C1(C)OC1C(C)C1CC(O)(NC(=O)O1)C(OC)/C=C/C=C(C)C2OC` (stereo not given): the T/C is, setting by setting: (dose: 4.0 micrograms/kg/injection, schedule: Q01DX009 (ip), vehicle: distilled water + alcohol) 102 % of control; (dose: 8.0 micrograms/kg/injection, schedule: Q01DX009 (ip), vehicle: distilled water + alcohol) 114 % of control.

As to `CC[C@H](CC[C@@H](C)[C@H]1CC[C@H]2[C@@H]3CC=C4C[C@@H](OC(C)=O)CC[C@]4(C)[C@H]3CC[C@]12C)C(C)C`, the T/C (dose: 12.5 mg/kg/injection, schedule: Q01DX009 (ip), vehicle: Klucel (hydroxypropylcellulose) (HPC)) was 95 % of control.

As for `O=c1ccc(N=Nc2ccccc2)ccc1Cl`, the T/C is, setting by setting: (dose: 0.25 mg/kg/injection, schedule: Q01DX009 (ip), vehicle: Klucel (hydroxypropylcellulose) (HPC)) 98 % of control; (dose: 0.5 mg/kg/injection, schedule: Q01DX009 (ip), vehicle: Klucel (hydroxypropylcellulose) (HPC)) 93 % of control; (dose: 1.0 mg/kg/injection, schedule: Q01DX009 (ip), vehicle: Klucel (hydroxypropylcellulose) (HPC)) 100 % of control.

Turning to `CC(=O)O[C@@H]1CO[C@H]2O[C@H]3[C@@H](C(C=O)=C[C@H](O)[C@@H]4C5=C(C(C)C)CC[C@]5(C)CC[C@@]34C)[C@@]2(O)C1=O`, the T/C is, setting by setting: (dose: 0.75 mg/kg/injection, schedule: Q01DX009 (ip), vehicle: Klucel (hydroxypropylcellulose) (HPC)) 89 % of control; (dose: 1.5 mg/kg/injection, schedule: Q01DX009 (ip), vehicle: Klucel (hydroxypropylcellulose) (HPC)) 94 % of control; (dose: 3.0 mg/kg/injection, schedule: Q01DX009 (ip), vehicle: Klucel (hydroxypropylcellulose) (HPC)) 88 % of control.

Take `c1ccc2c3c(ccc2c1)Sc1ccc2ccccc2c1N3`: the T/C was 112 % of control (dose: 50.0 mg/kg/injection, schedule: Q01DX009 (ip), vehicle: saline); 112 % of control under setting [1]; 112 % of control under setting [2]; 123 % of control under setting [3].

Turning to `N#C[C@H](OC1OC(COC2OC(CO)C(O)C(O)C2O)C(O)C(O)C1O)c1ccccc1` (stereo not given in full), the T/C is 96 % of control (dose: 12.5 mg/kg/injection, schedule: Q01DX009 (oral), vehicle: saline); 98 % of control under setting [5]; 101 % of control (dose: 25.0 mg/kg/injection, schedule: Q01DX009 (oral), vehicle: saline); 98 % of control under setting [7]; 98 % of control (2×) and 102 % of control (dose: 50.0 mg/kg/injection, schedule: Q01DX009 (oral), vehicle: saline); 108 % of control under setting [9]. The T/C was 121 % of control under setting [10]; 103 % of control (dose: 400.0 mg/kg/injection, schedule: Q01DX009 (ip), vehicle: suspension in saline); 111 % of control (dose: 800.0 mg/kg/injection, schedule: Q01DX009 (ip), vehicle: suspension in saline).

On to `Nc1cc(Cl)c2[nH]cnc2n1`, for which the T/C was 102 % of control (dose: 6.25 mg/kg/injection, schedule: Q01DX009 (ip), vehicle: water); 95 % of control (dose: 12.5 mg/kg/injection, schedule: Q01DX009 (ip), vehicle: distilled water + Tween-80); 106 % of control (dose: 12.5 mg/kg/injection, schedule: Q01DX009 (ip), vehicle: water); 88 % of control under setting [11]; 110 % of control (dose: 25.0 mg/kg/injection, schedule: Q01DX009 (ip), vehicle: water); 99 % of control under setting [12]. Also, the T/C is, setting by setting: (dose: 50.0 mg/kg/injection, schedule: Q01DX009 (ip), vehicle: water) 98 % of control; (dose: 100.0 mg/kg/injection, schedule: Q01DX009 (ip), vehicle: distilled water + Tween-80) 96 % of control; (dose: 100.0 mg/kg/injection, schedule: Q01DX009 (ip), vehicle: water) 100 % of control; (dose: 200.0 mg/kg/injection, schedule: Q01DX009 (ip), vehicle: water) 100 % of control.

As to `CCOc1ccc(C(C)c2cc3c(cc2OC)OCO3)cc1` (stereo not given), the T/C is, setting by setting: under setting [11], 123 % of control; under setting [12], 107 % of control.

Source of the values: PubChem BioAssay AID200 (DTP/NCI, 2004).
